Test results reported in patent publication US8541407B2 (ArQule, Inc., priority 2010, dated 2013).
Structures can show the parent of a compound that is named as a salt.

Columns and labels:
AKT1 = AKT1 (Homo sapiens (Human), UniProt P31749); assay: Inactive Akt Alpha Screen Assay; details: non *labeled: Akt Alpha Screen assay; read-out: AKT1 biochemical assay, IC50
How it was run: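 AKT1 activated in situ by PDK1, MAPKAPK2, lipid vesicles and ATP, then phosphorylating biotinylated crosstide for 30 min at room temperature. Stopped with 10 mM EDTA; phosphopeptide detected by AlphaScreen using phospho-AKT substrate antibody (1:350), Protein A acceptor and streptavidin donor beads, 90 min dark, ex 640/em 570 nm.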

A2780 = assay: MTS Assay, cell proliferation analysis (A2780); format: cell-based; details: Homo sapiens; A2780 cells; 72 hours; 10 Percent FBS
Description: (§1) Cell proliferation analysis. Cell survival was determined by the MTS assay. Briefly, cells were plated in a 96-well plate at 2,000-10,000 cells per well, cultured for 24 hours in complete growth medium, and then treated with representative compounds of the invention or combinations thereof for 72 hours. MTS was added and incubated for 4 hours, followed by assessment of cell viability by using the microplate reader at 570 nm. Data were normalized to untreated controls and analyzed.

AN3-CA = assay: MTS Assay, cell proliferation analysis (AN3-CA); format: cell-based; details: Homo sapiens; AN3-CA cells; 72 hours; 10 Percent FBS
Description: as §1

AKT1, sequence (P31749 whole entry): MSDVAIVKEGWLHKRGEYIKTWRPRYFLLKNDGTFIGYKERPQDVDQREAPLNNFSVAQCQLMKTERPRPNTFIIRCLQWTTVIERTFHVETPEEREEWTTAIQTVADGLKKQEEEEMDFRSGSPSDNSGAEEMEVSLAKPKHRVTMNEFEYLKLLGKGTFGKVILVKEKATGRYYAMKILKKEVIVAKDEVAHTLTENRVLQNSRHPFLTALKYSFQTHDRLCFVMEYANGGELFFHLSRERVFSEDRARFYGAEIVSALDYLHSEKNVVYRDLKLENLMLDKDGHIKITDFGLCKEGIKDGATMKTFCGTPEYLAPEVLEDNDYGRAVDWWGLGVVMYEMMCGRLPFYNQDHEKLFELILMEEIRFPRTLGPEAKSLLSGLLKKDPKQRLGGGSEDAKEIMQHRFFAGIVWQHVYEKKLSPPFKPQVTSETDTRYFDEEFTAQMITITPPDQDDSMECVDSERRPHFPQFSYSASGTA

Which results are given for `Cc1cccc(S(=O)(=O)NCc2ccc(-c3nnc4n3-c3cccnc3Nc3ccccc3-4)cc2)c1` [Example 115, N-(4-(9H-benzo[f]pyrido[2,3-b][1,2,4]triazolo[4,3-d][1,4]diazepin-3-yl)benzyl)-3-methylbenzenesulfonamide]?
IC50 (AKT1): 0.11 µM; IC50 (A2780): 16 µM; IC50 (AN3-CA): 28 µM

How did the IC50 (AKT1) turn out when `O=C(NCc1ccc(-c2nnc3n2-c2cccnc2Nc2ccccc2-3)cc1)Nc1ccccc1F` [Example 121, 1-(4-(9H-benzo[f]pyrido[2,3-b][1,2,4]triazolo[4,3-d][1,4]diazepin-3-yl)benzyl)-3-(2-fluorophenyl)urea] was run?
The IC50 was 0.31 µM.

And the IC50 (A2780)?
The IC50 was 16 µM.

And the IC50 (AN3-CA)?
The IC50 was 27 µM.

With `O=S(=O)(NCc1ccc(-c2nnc3n2-c2cccnc2Nc2ccccc2-3)cc1)c1cccc(Cl)c1` [Example 116, N-(4-(9H-benzo[f]pyrido[2,3-b][1,2,4]triazolo[4,3-d][1,4]diazepin-3-yl)benzyl)-3-chlorobenzenesulfonamide] as the molecule, how does the IC50 (AKT1) read?
Its IC50 is 0.15 µM.

What about the IC50 (A2780) of the same molecule?
Its IC50 is 21 µM.

And the IC50 (AN3-CA)?
Its IC50 is 23 µM.

For `O=C(NCCc1cccs1)NC1CCN(Cc2ccc(-c3nnc4n3-c3cccnc3Nc3ccccc3-4)cc2)CC1` [Example 182, 1-(1-(4-(9H-benzo[f]pyrido[2,3-b][1,2,4]triazolo[4,3-d][1,4]diazepin-3-yl)benzyl)piperidin-4-yl)-3-(2-(thiophen-2-yl)ethyl)urea], which IC50 (AKT1) is on record?
Its IC50 is 0.75 µM.

What about the IC50 (A2780) of the same molecule?
Its IC50 is 10 µM.

And the IC50 (AN3-CA)?
Its IC50 is 28 µM.

With `COc1cccc(NC(=O)NCc2ccc(-c3nnc4n3-c3cccnc3Nc3ccccc3-4)cc2)c1` [Example 123, 1-(4-(9H-benzo[f]pyrido[2,3-b][1,2,4]triazolo[4,3-d][1,4]diazepin-3-yl)benzyl)-3-(3-methoxyphenyl)urea] as the molecule, how does the IC50 (AKT1) read?
Its IC50 is 0.13 µM.

What about the IC50 (A2780) of the same molecule?
The IC50 was 27 µM.

What about the IC50 (AN3-CA) of the same molecule?
Its IC50 is 48 µM.

For `c1ccc(-n2cc(COCc3ccc(-c4nnc5n4-c4cccnc4Nc4ccccc4-5)cc3)nn2)cc1` [Example 186, 3-(4-(((1-phenyl-1H-1,2,3-triazol-4-yl)methoxy)methyl)phenyl)-9H-benzo[f]pyrido[2,3-b][1,2,4]triazolo[4,3-d][1,4]diazepine], which IC50 (AKT1) is on record?
The IC50 was 0.49 µM.

What about the IC50 (A2780) of the same molecule?
The IC50 was 3 µM.

What about the IC50 (AN3-CA) of the same molecule?
The IC50 was 4 µM.

Which IC50 (AKT1) does the source give for `O=S(=O)(NCc1ccc(-c2nnc3n2-c2cccnc2Nc2ccccc2-3)cc1)c1ccc(F)cc1` [Example 117, N-(4-(9H-benzo[f]pyrido[2,3-b][1,2,4]triazolo[4,3-d][1,4]diazepin-3-yl)benzyl)-4-fluorobenzenesulfonamide] here?
Its IC50 is 0.12 µM.

What about the IC50 (A2780) of the same molecule?
Its IC50 is 19 µM.

And the IC50 (AN3-CA)?
The IC50 was 37 µM.

For `O=C(Nc1ccc(-c2nnc3n2-c2cccnc2Nc2ccccc2-3)cc1)c1ccccc1` [Example 59, N-(4-(9H-benzo[f]pyrido[2,3-b][1,2,4]triazolo[4,3-d][1,4]diazepin-3-yl)phenyl)benzamide], which IC50 (AKT1) is on record?
The IC50 was 0.07 µM.

And the IC50 (A2780)?
The IC50 was 32 µM.

And the IC50 (AN3-CA)?
Its IC50 is 28 µM.

`Cc1ccc(S(=O)(=O)NC2(c3ccc(-c4nnc5n4-c4cccnc4Nc4ccccc4-5)cc3)CCC2)cc1` [Example 198, N-(1-(4-(9H-benzo[f]pyrido[2,3-b][1,2,4]triazolo[4,3-d][1,4]diazepin-3-yl)phenyl)cyclobutyl)-4-methylbenzenesulfonamide] was tested. Which IC50 (AKT1) did it give?
The IC50 was 0.34 µM.

What about the IC50 (A2780) of the same molecule?
Its IC50 is 12 µM.

And the IC50 (AN3-CA)?
The IC50 was 17 µM.

What does the source list for `O=S(=O)(NC1CCN(Cc2ccc(-c3nnc4n3-c3cccnc3Nc3ccccc3-4)cc2)CC1)c1ccc2c(c1)OCCO2` [Example 156, N-(1-(4-(9H-benzo[f]pyrido[2,3-b][1,2,4]triazolo[4,3-d][1,4]diazepin-3-yl)benzyl)piperidin-4-yl)-2,3-dihydrobenzo[b][1,4]dioxine-6-sulfonamide]?
IC50 (AKT1): 2 µM; IC50 (A2780): 15 µM; IC50 (AN3-CA): 20 µM

For `O=S(=O)(NC1(c2ccc(-c3nnc4n3-c3cccnc3Nc3ccccc3-4)cc2)CCC1)c1ccccc1` [Example 195, N-(1-(4-(9H-benzo[f]pyrido[2,3-b][1,2,4]triazolo[4,3-d][1,4]diazepin-3-yl)phenyl)cyclobutyl)benzenesulfonamide], which IC50 (AKT1) is on record?
Its IC50 is 0.28 µM.

What about the IC50 (A2780) of the same molecule?
Its IC50 is 11 µM.

What about the IC50 (AN3-CA) of the same molecule?
The IC50 was 16 µM.

Which results are given for `Fc1ccc2c(CCNCc3ccc(-c4nnc5n4-c4cccnc4Nc4ccccc4-5)cc3)c[nH]c2c1` [Example 202, N-(4-(9H-benzo[f]pyrido[2,3-b][1,2,4]triazolo[4,3-d][1,4]diazepin-3-yl)benzyl)-2-(6-fluoro-1H-indol-3-yl)ethanamine]?
IC50 (AKT1): 0.21 µM; IC50 (A2780): 4 µM; IC50 (AN3-CA): 15 µM

For `Clc1ccc2nc(CCNCc3ccc(-c4nnc5n4-c4cccnc4Nc4ccccc4-5)cc3)[nH]c2c1` [Example 203, N-(4-(9H-benzo[f]pyrido[2,3-b][1,2,4]triazolo[4,3-d][1,4]diazepin-3-yl)benzyl)-2-(6-chloro-1H-benzo[d]imidazol-2-yl)ethanamine], which IC50 (AKT1) is on record?
The IC50 was 0.15 µM.

And the IC50 (A2780)?
The IC50 was 10 µM.

And the IC50 (AN3-CA)?
The IC50 was 13 µM.

For `Cc1ccc(S(=O)(=O)NCc2ccc(-c3nnc4n3-c3cccnc3Nc3ccccc3-4)cc2)cc1` [Example 118, N-(4-(9H-benzo[f]pyrido[2,3-b][1,2,4]triazolo[4,3-d][1,4]diazepin-3-yl)benzyl)-4-methylbenzenesulfonamide], which IC50 (AKT1) is on record?
The IC50 was 0.11 µM.

And the IC50 (A2780)?
The IC50 was 14 µM.

What about the IC50 (AN3-CA) of the same molecule?
The IC50 was 28 µM.

Which results are given for `Cc1ccc(NC(=O)NC2CCN(Cc3ccc(-c4nnc5n4-c4cccnc4Nc4ccccc4-5)cc3)CC2)cc1` [Example 168, 1-(1-(4-(9H-benzo[f]pyrido[2,3-b][1,2,4]triazolo[4,3-d][1,4]diazepin-3-yl)benzyl)piperidin-4-yl)-3-(p-tolyl)urea]?
IC50 (AKT1): 0.44 µM; IC50 (A2780): 15 µM; IC50 (AN3-CA): 22 µM

With `O=S(=O)(NCCc1ccc(-c2nnc3n2-c2cccnc2Nc2ccccc2-3)cc1)c1ccccc1` [Example 108, N-(4-(9H-benzo[f]pyrido[2,3-b][1,2,4]triazolo[4,3-d][1,4]diazepin-3-yl)phenethyl)benzenesulfonamide] as the molecule, how does the IC50 (AKT1) read?
Its IC50 is 5.8 µM.

`c1ccc2c(c1)Nc1ncccc1-n1c(-c3ccc4ccccc4c3)nnc1-2` [hydrochloride] was tested. Which IC50 (AKT1) did it give?
Its IC50 is 29 µM.

For `Cc1cccc(NC(=O)NC2CCN(Cc3ccc(-c4nnc5n4-c4cccnc4Nc4ccccc4-5)cc3)CC2)c1` [Example 170, 1-(1-(4-(9H-benzo[f]pyrido[2,3-b][1,2,4]triazolo[4,3-d][1,4]diazepin-3-yl)benzyl)piperidin-4-yl)-3-(m-tolyl)urea], which IC50 (AKT1) is on record?
The IC50 was 0.66 µM.

With `Cc1ccc(C(=O)N2CCN(Cc3ccc(-c4nnc5n4-c4cccnc4Nc4ccccc4-5)cc3)CC2)cc1` [Example 160, (4-(4-(9H-benzo[f]pyrido[2,3-b][1,2,4]triazolo[4,3-d][1,4]diazepin-3-yl)benzyl)piperazin-1-yl)(p-tolyl)methanone] as the molecule, how does the IC50 (AKT1) read?
The IC50 was 3 µM.

`NC1(c2ccc(-c3nnc4n3-c3cnccc3Nc3ccccc3-4)cc2)CCC1` [Example 220, 1-(4-(9H-benzo[f]pyrido[4,3-b][1,2,4]triazolo[4,3-d][1,4]diazepin-3-yl)phenyl)cyclobutanamine] was tested. Which IC50 (AKT1) did it give?
Its IC50 is 5 µM.

How did the IC50 (AKT1) turn out when `O=C(NCc1ccccc1Cl)NC1CCN(Cc2ccc(-c3nnc4n3-c3cccnc3Nc3ccccc3-4)cc2)CC1` [Example 173, 1-(1-(4-(9H-benzo[f]pyrido[2,3-b][1,2,4]triazolo[4,3-d][1,4]diazepin-3-yl)benzyl)piperidin-4-yl)-3-(2-chlorobenzyl)urea] was run?
Its IC50 is 0.91 µM.

Which IC50 (AKT1) does the source give for `c1ccc(CCNC2(c3ccc(-c4nnc5n4-c4cccnc4Nc4ccccc4-5)cc3)CCC2)cc1` [Example 229, 1-(4-(9H-benzo[f]pyrido[2,3-b][1,2,4]triazolo[4,3-d][1,4]diazepin-3-yl)phenyl)-N-phenethylcyclobutanamine] here?
The IC50 was 3.8 µM.
